Laboratory results: patent US11229592B2, “Method for hair volume reduction” (Conopco, Inc., priority 2017, dated 2022)

Experiments:
[1] = Long lasting and durable volume reduction of treated hair switches after subsequent washing; conditions: switches from Example 1 subsequently washed, images captured; compared to control
Procedure: (§1) Dark brown European wavy hair switches of length 25 cm and weight 2 gms, were treated as follows:
(§2) At the end of the soaking period, the switches were left to dry at 20° C. and 50% RH. When dried, the switches were straightened with 5 passes of FHI irons (FHI Brands, 29003 Avenue Sherman Valencia, Calif. 91355 USA). The switches were then placed in a humidity chamber ˜30 C/80% RH for 1 hour and images were captured and analyzed.
The switches from the above example were subsequently washed and the images were captured. […] The corresponding benefits for glycine was only −10%.

[2] = Shape and frizz control (volume) of straightened hair switches after high humidity, image analysis; conditions: After 1 hour at high humidity (30 C./80% RH), switches soaked 30 minutes in 1% aqueous solution, dried, compared to water control
Procedure: as §1
Control: After initial washing, soaked for 30 minutes in water
Comparative Example A: After initial washing, soaked for 30 minutes in aqueous solution of 1% glycine
Example 1: soaked for 30 minutes in aqueous solution of 1% N-formyl glycine
as §2

SMILES | benefit over control (volume reduction) [1] | % shape and frizz control benefit against control [2]
O=CNCC(=O)O [Example 1, N-formyl glycine] | 32% | 30%
NCC(=O)O [Comparative Example A, glycine] | −10% | −6%
